{"source": "patent US20010029264A1", "about": "“Novel methods and compositions for delivery of taxanes” (priority 1998, published 2001)", "key": {"[1]": {"experiment": "Solubilization of paclitaxel in the carrier and appearance of the undiluted formulation", "format": "physicochemical", "quoted_text": "4.040 g of Vitamin E-TPGS (Eastman Chemical Co., Kingsport, Tenn.) was chipped in and weighed into a 20 ml scintillation vial. 0.514 g of dimethylisosorbide (“DMI”; ARLASOLVE® DMI, ICI Surfactants; Wilmington, Del.) was added to the vial followed by heating to melt the Vitamin E-TPGS/DMI mixture. […] The solution began to clarify and dissolution progressed.\nEach formulation was prepared in a 20 ml scintillation vial. The vial was initially tared. CREMOPHOR® EL/citric acid blend (10 g CREMOPHOR® EL, 0.020 g citric acid) was weighed into each of eight (8) tared vials. The weight was recorded. Each vial was subsequently tared and the appropriate weight of dimethylisosorbide (DMI) was added. An additional five (5) vials were also prepared without containing the CREMOPHOR® EL/citric acid blend. […] All vials were individually tared and the appropriate weight of Vitamin E-TPGS was added. At this point, all vials were placed in a 40° C. incubator to liquefy the Vitamin E-TPGS within each sample. After the solutions had liquefied, two samples were removed at a time and placed on a stir/hotplate. One-half inch egg shaped stir bars were added to each scintillation vial.\nLarge clumps were broken apart easily with a stainless steel spatula. […] This same procedure was repeated for each of the samples.\n1.016 g of ethyl alcohol was transferred to a 20 ml scintillation vial containing a stir bar. […]"}, "[2]": {"system": "human X-1 mammary tumor xenograft", "settings": "cited from earlier work"}, "[3]": {"experiment": "Oral feasibility PK in dogs (paclitaxel capsules, plasma HPLC)", "format": "in vivo", "settings": "for Cmax / Tmax: dog, plasma; for Tmax: read-out: tmax (time of maximum concentration observed)", "description": "The formulation was as follows: […]\nand was hand filled into single 0 hard gelatin capsules to a dose of approximately 34 mg/capsule.\nCapsules were inserted into the esophagus and followed with a brief squirt of water and the animals held until swallowing was observed."}, "[4]": {"system": "IP implanted D16 melanoma", "settings": "cited from earlier work"}, "[5]": {"settings": "male beagle FJF-8, oral, 3 capsules Vitamin E TPGS/DMI formulation, 7.66 mg/kg"}, "[6]": {"settings": "male beagle IOF-8, oral, 3 capsules Vitamin E TPGS/DMI formulation, 6.88 mg/kg"}}, "note": "Like-named read-outs stand apart in the source and are kept apart here."}
{"smiles": "CC(=O)O[C@H]1C(=O)[C@@]2(C)[C@H]([C@H](OC(=O)c3ccccc3)[C@]3(O)C[C@H](OC(=O)[C@H](O)[C@@H](NC(=O)c4ccccc4)c4ccccc4)C(C)=C1C3(C)C)[C@]1(OC(C)=O)CO[C@@H]1C[C@@H]2O", "note": "[paclitaxel]", "values": [{"measurement": "dissolution of paclitaxel in Methoxy PEG 550 alone", "setting": "[1]; 0.050 g in 0.450 g (Table 3)", "value": "eventually dissolved"}, {"measurement": "dissolution of paclitaxel in Methoxy PEG 350 alone", "setting": "[1]; 0.050 g in 0.450 g and 0.100 g in 0.900 g (Table 3)", "value": "quickly dissolved"}, {"measurement": "cytotoxic activity", "setting": "[2]", "value": "good cytotoxic activity"}, {"measurement": "Cmax", "setting": "[3]; [5]", "value": 108, "unit": "ng/mL"}, {"measurement": "Tmax", "setting": "[3]; [5]", "value": 1, "unit": "h"}, {"measurement": "Cmax", "setting": "[3]; [6]", "value": 92, "unit": "ng/mL"}, {"measurement": "Tmax", "setting": "[3]; [6]", "value": 0.5, "unit": "h"}, {"measurement": "tlast (time of last nonzero concentration observed)", "setting": "[3]; [5]", "value": 8, "unit": "h"}, {"measurement": "tlast (time of last nonzero concentration observed)", "setting": "[3]; [6]", "value": 6, "unit": "h"}, {"measurement": "tlast (time of last nonzero concentration observed)", "setting": "[3]; male beagle OEF-8, oral, 1 capsule Vitamin E TPGS/DMI formulation, 3.27 mg/kg", "value": 8, "unit": "h"}, {"measurement": "tlast (time of last nonzero concentration observed)", "setting": "[3]; male beagle OLF-8, oral, 3 capsules Vitamin E TPGS/DMI formulation, 11.14 mg/kg", "value": 8, "unit": "h"}, {"measurement": "tlast (time of last nonzero concentration observed)", "setting": "[3]; male beagle PXF-8, oral, 1 capsule Vitamin E TPGS/DMI formulation, 3.23 mg/kg", "value": 12, "unit": "h"}, {"measurement": "Cmax", "setting": "[3]; male, beagle, po, 3.23 mg/kg", "value": 17, "unit": "ng/mL"}, {"measurement": "Tmax", "setting": "[3]; male, beagle, po, 3.23 mg/kg", "value": 1, "unit": "h"}, {"measurement": "Cmax", "setting": "[3]; male, beagle, po, 3.27 mg/kg", "value": 97, "unit": "ng/mL"}, {"measurement": "Tmax", "setting": "[3]; male, beagle, po, 3.27 mg/kg", "value": 1, "unit": "h"}, {"measurement": "Cmax", "setting": "[3]; male, beagle, po, 11.14 mg/kg", "value": 63, "unit": "ng/mL"}, {"measurement": "Tmax", "setting": "[3]; male, beagle, po, 11.14 mg/kg", "value": 1, "unit": "h"}, {"measurement": "detectable plasma levels of intact drug following dosing", "setting": "[3]; six male beagles, oral capsules, 3 to 11 mg/kg, plasma to 48 hours postdose", "value": "Five of the six animals had detectable levels of intact drug"}, {"measurement": "cytotoxic activity", "setting": "[4]", "value": "good cytotoxic activity"}]}
